The target of assay [1] is T1, long isoform of human D2 receptor (Homo sapiens, UniProt P14416). The experiment in a line: cAMP HTRF Agonist Assay (DRD2L PathHunter CHO-K1 cells, forskolin-stimulated). For orientation: In TR-FRET formats the signal depends on donor and acceptor labels being close together.
The target in assay [2] is T1, long isoform of human D2 receptor. The experiment in a line: Arrestin Antagonist Assay (DRD2L PathHunter CHO-K1 cells, vs EC80 dopamine). The conditions noted are these: for Emax: CHO-K1, read-out: β-arrestin (antagonist mode) Imax.
Procedure: Cell Lines: Activities of the compounds were assessed using a Chinese Hamster Ovary (CHO—K1) cell line that recombinantly expressed the long isoform of human D2 receptor (DRD2L PathHunter cells). The D2 receptor DNA sequence was modified to contain a “ProLink” at its C-terminus which allowed complementation with an “enzyme acceptor” (EA)-tagged β-arrestin protein. The recruitment of the O-arrestin by the D2 receptor led to complementation of the ProLink and EA and formation of active β-galactosidase which generated a D2-specific signal that was measured.
Arrestin Antagonist Assay: One day prior to testing, a vial of high density stock of DRD2L PathHunter cells was thawed, and 1×10^7 cells diluted into 40 mL of growth media (Ham's F12/10% HI FBS/1% PSG). 20 μL cells per well were seeded directly into assay plates, and the plates were allowed to rest for 1 h at RT before incubating in a plate incubator overnight.
The plate was incubated for 30 min at 37° C. 15 μL PathHunter detection reagent was added to each well of the assay plate, which was then covered and incubated for 1 h at RT. The plate was read on an Envision reader using the Luminescence protocol, and the data were exported for analysis.
The IC50 values (concentration producing a half-maximal inhibitory response) were determined by non-linear regression analysis of the concentration-response curves.
For assay [3] the target is unchanged. The experiment in a line: Arrestin Agonist Assay (DRD2L PathHunter CHO-K1 cells, β-arrestin recruitment).
The mark [4] stands for this setting: CHO-K1, read-out: cAMP (agonist mode) Emax.
The mark [5] stands for this setting: CHO-K1, read-out: β-arrestin (agonist mode) Emax.
Where [6] appears, read: CHO-K1, read-out: Emax in cAMP agonist assay.
Setting [7] is: CHO-K1, read-out: Emax in β-arrestin agonist assay.

pEC50, pIC50: −log10 of the molar value.

Results on 23 compounds are retold here after patent US9951088B2, “D2 receptor modulators and methods of use thereof in the treatment of diseases and disorders” (SUNOVION PHARMACEUTICALS INC., priority 2012, dated 2018).

T1 sequence (P14416 whole entry, canonical isoform): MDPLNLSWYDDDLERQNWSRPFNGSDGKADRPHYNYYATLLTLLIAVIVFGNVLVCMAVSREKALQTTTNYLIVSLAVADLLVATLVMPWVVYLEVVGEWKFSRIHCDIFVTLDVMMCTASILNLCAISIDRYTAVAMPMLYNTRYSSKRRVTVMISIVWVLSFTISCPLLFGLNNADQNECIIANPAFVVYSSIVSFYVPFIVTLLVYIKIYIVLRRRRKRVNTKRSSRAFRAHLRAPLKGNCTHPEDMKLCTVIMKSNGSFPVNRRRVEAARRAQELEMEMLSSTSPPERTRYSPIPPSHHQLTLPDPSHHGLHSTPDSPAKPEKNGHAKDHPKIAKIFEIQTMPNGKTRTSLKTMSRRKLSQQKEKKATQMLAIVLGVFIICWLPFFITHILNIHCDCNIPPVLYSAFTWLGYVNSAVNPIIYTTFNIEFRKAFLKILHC

With `Oc1cccc2ccc(OCCCCN3CCc4cc(C(F)(F)F)ccc4C3)nc12` [Compound 17, 2-(4-(6-(trifluoromethyl)-3,4-dihydroisoquinolin-2(1H)-yl)butoxy)quinolin-8-ol], the pIC50 in assay [1] is below 5.00; in assay [2], 5.00 to 6.00. Moreover, the Emax was below 10% in assay [1] (setting [4]), above 75% in assay [2] and below 10% in assay [3] (setting [5]). The pEC50 in assay [3] is below 5.00.

In the case of `O=c1ccc2ccc(OCCCCN3CCc4nn(-c5ccccc5)cc4C3)nc2[nH]1` [Compound 66, 7-(4-(2-phenyl-6,7-dihydro-2H-pyrazolo[4,3-c]pyridin-5(4H)-yl)butoxy)-1,8-naphthyridin-2(1H)-one], the pIC50 in assay [1] and in assay [2] was 7.00 to 8.00 each time. For the same compound, the Emax in assay [1] (setting [4]) is 10 to 25%; in assay [2] it was above 75%; in assay [3] (setting [5]), below 10%. The compound also gave a pEC50 in assay [3] below 5.00.

On to `CCOc1cccnc1N1CCN(CCCCOc2ccc3cccc(O)c3n2)CC1` [Compound 10, 2-(4-(4-(3-ethoxypyridin-2-yl)piperazin-1-yl)butoxy)quinolin-8-ol], for which the pIC50 in assay [1] was above 8.00; in assay [2] it was 7.00 to 8.00. Moreover, the figures for the Emax in assay [1] (setting [4]), in assay [2] and in assay [3] (setting [5]) were 25 to 50%, above 75% and 10 to 25%, respectively. The compound also had a pEC50 in assay [3] above 8.00.

With `COc1ccc(-n2cc3c(n2)CCN(CCCCOc2ccc4c(c2)NC(=O)CC4)C3)cc1` [Compound 39, 7-(4-(2-(4-methoxyphenyl)-6,7-dihydro-2H-pyrazolo[4,3-c]pyridin-5(4H)-yl)butoxy)-3,4-dihydroquinolin-2(1H)-one], the figures for the pIC50 in assay [1] and in assay [2] were below 5.00 and 5.00 to 6.00, respectively. Besides, the Emax is below 10% in assay [1] (setting [4]), above 75% in assay [2] and below 10% in assay [3] (setting [5]). Also, in assay [3], the pEC50 was below 5.00.

As for `O=c1ccc2ccc(OCCCCN3CCc4cc(Cl)ccc4C3)nc2[nH]1` [Compound 59, 7-(4-(6-chloro-3,4-dihydroisoquinolin-2(1H)-yl)butoxy)-1,8-naphthyridin-2(1H)-one], the pIC50 in assay [1] and in assay [2] was above 8.00 each time. For the same compound, the Emax in assay [1] (setting [4]) was 10 to 25%; in assay [2], above 75%; in assay [3] (setting [5]) it was below 10%. This compound had a negative logarithm of the EC50 (pEC50) in assay [3] below 5.00.

In the case of `O=C1CCc2ccc(OCCCCN3CCc4cc(Cl)ccc4C3)nc2N1` [Compound 75, 7-(4-(6-chloro-3,4-dihydroisoquinolin-2(1H)-yl)butoxy)-3,4-dihydro-1,8-naphthyridin-2(1H)-one], the pIC50 in assay [1] is above 8.00; in assay [2] it was 7.00 to 8.00. The results for the Emax in assay [1] (setting [4]), in assay [2] and in assay [3] (setting [5]) were 10 to 25%, above 75% and below 10%, respectively. In addition, the pEC50 in assay [3] was below 5.00.

In the case of `CCCOc1cccnc1N1CCN(CCCCOc2ccc3cccc(O)c3n2)CC1` [Compound 11, 2-(4-(4-(3-propoxypyridin-2-yl)piperazin-1-yl)butoxy)quinolin-8-ol], the pIC50 in assay [1] was below 5.00; in assay [2], 6.00 to 7.00. Moreover, the figures for the Emax in assay [1] (setting [4]), in assay [2] and in assay [3] (setting [5]) were below 10%, above 75% and below 10%, respectively. In addition, the pEC50 in assay [3] is below 5.00.

Regarding `CC(=O)Nc1cccc(OCCCCN2CCc3ccccc3C2)n1` [Compound 40, N-(6-(4-(3,4-dihydroisoquinolin-2(1H)-yl)butoxy)pyridin-2-yl)acetamide], the values for the pIC50 in assay [1] and in assay [2] were below 5.00 and 6.00 to 7.00, respectively. Further, the Emax in assay [1] (setting [4]) is below 10%; in assay [2], above 75%; in assay [3] (setting [5]), below 10%. Also, the pEC50 in assay [3] was below 5.00.

Turning to `COc1cccnc1N1CCN(CCCCOc2ccc3cn[nH]c3c2)CC1` [Compound 99, 6-(4-(4-(3-methoxypyridin-2-yl)piperazin-1-yl)butoxy)-1H-indazole], the results for the pIC50 in assay [1] and in assay [2] were above 8.00 and 7.00 to 8.00, respectively. Besides, the Emax in assay [1] (setting [4]) was 25 to 50%; in assay [2] it was above 75%; in assay [3] (setting [5]) it was 10 to 25%. In addition, the pEC50 in assay [3] was above 8.00.

Take `Cc1ccccc1N1CCN(CCCCOc2ccc3cn[nH]c3c2)CC1` [Compound 96, 6-(4-(4-(o-tolyl)piperazin-1-yl)butoxy)-1H-indazole]: the pIC50 in assay [1] is 7.00 to 8.00; in assay [2] it was 6.00 to 7.00. Moreover, the figures for the Emax in assay [1] (setting [4]), in assay [2] and in assay [3] (setting [5]) were 25 to 50%, above 75% and 10 to 25%, respectively. Moreover, the pEC50 in assay [3] was 7.00 to 8.00.

For the compound `O=C1CCc2ccc(OCCCCN3CCc4ncsc4C3)cc2N1` [Compound 26, 7-(4-(6,7-dihydrothiazolo[5,4-c]pyridin-5(4H)-yl)butoxy)-3,4-dihydroquinolin-2(1H)-one], the pIC50 in assay [1] was 7.00 to 8.00; in assay [2], 5.00 to 6.00. Moreover, the values for the Emax in assay [1] (setting [4]), in assay [2] and in assay [3] (setting [5]) were 25 to 50%, above 75% and 10 to 25%, respectively. The compound also gave a pEC50 in assay [3] above 8.00.

Consider `O=c1ccc2ccc(OCCCCN3CCc4cccc(C(F)(F)F)c4C3)nc2[nH]1` [Compound 63, 7-(4-(8-(trifluoromethyl)-3,4-dihydroisoquinolin-2(1H)-yl)butoxy)-1,8-naphthyridin-2(1H)-one], for which the pIC50 was below 5.00 in assay [1] and 7.00 to 8.00 in assay [2]. Also, the Emax in assay [1] (setting [4]) is below 10%; in assay [2], above 75%; in assay [3] (setting [5]) it was below 10%. This compound also had a pEC50 in assay [3] below 5.00.

For `c1ccc2c(N3CCN(CCCCOc4ccc5cn[nH]c5c4)CC3)cccc2c1` [Compound 92, 6-(4-(4-(naphthalen-1-yl)piperazin-1-yl)butoxy)-1H-indazole], the pIC50 in assay [1] and in assay [2] was 7.00 to 8.00 throughout. Further, the results for the Emax in assay [1] (setting [4]), in assay [2] and in assay [3] (setting [5]) were 25 to 50%, 50 to 75% and 25 to 50%, respectively. The compound further had a pEC50 in assay [3] above 8.00.

With `N#Cc1ccc2c(c1)CCN(CCCCOc1ccc3cccc(O)c3n1)C2` [Compound 15, 2-(4-((8-hydroxyquinolin-2-yl)oxy)butyl)-1,2,3,4-tetrahydroisoquinoline-6-carbonitrile], the pIC50 in assay [1] is below 5.00; in assay [2] it was 5.00 to 6.00. Further, the Emax is below 10% in assay [1] (setting [4]), above 75% in assay [2] and below 10% in assay [3] (setting [5]). Also, the pEC50 in assay [3] was below 5.00.

For the compound `COc1ccc2c(c1)CCN(CCCCOc1ccc3cccc(O)c3n1)C2` [Compound 13, 2-(4-(6-methoxy-3,4-dihydroisoquinolin-2(1H)-yl)butoxy)quinolin-8-ol], the values for the pIC50 in assay [1] and in assay [2] were below 5.00 and 5.00 to 6.00, respectively. Besides, the Emax in assay [1] (setting [4]) is below 10%; in assay [2] it was above 75%; in assay [3] (setting [5]), 10 to 25%. This compound gave a pEC50 in assay [3] above 8.00.

On to `O=C1CCc2ccc(OCCCCN3CCc4ccsc4C3)nc2N1` [Compound 70, 7-(4-(4,5-dihydrothieno[2,3-c]pyridin-6(7H)-yl)butoxy)-3,4-dihydro-1,8-naphthyridin-2(1H)-one], for which the negative logarithm of the IC50 (pIC50) was below 5.00 in assay [1] and 6.00 to 7.00 in assay [2]. Besides, the values for the Emax in assay [1] (setting [4]), in assay [2] and in assay [3] (setting [5]) were below 10%, above 75% and below 10%, respectively. In addition, the pEC50 in assay [3] is below 5.00.

For `Oc1cccc2ccc(OCCCCN3CCN(c4cccc5ccccc45)CC3)nc12` [Compound 6, 2-(4-(4-(naphthalen-1-yl)piperazin-1-yl)butoxy)quinolin-8-ol], the pIC50 in assay [1] was 7.00 to 8.00; in assay [2] it was 6.00 to 7.00. Further, the figures for the Emax in assay [1] (setting [4]), in assay [2] and in assay [3] (setting [5]) were 25 to 50%, 50 to 75% and 25 to 50%, respectively. The compound also showed a pEC50 in assay [3] of 6.00 to 7.00.

As for `O=C1CCc2ccc(OCCCCN3CCc4c(Cl)cccc4C3)nc2N1` [Compound 76, 7-(4-(5-chloro-3,4-dihydroisoquinolin-2(1H)-yl)butoxy)-3,4-dihydro-1,8-naphthyridin-2(1H)-one], the results for the pIC50 in assay [1] and in assay [2] were above 8.00 and below 5.00, respectively. Besides, the Emax is above 75% in assay [1] (setting [4]), below 10% in assay [2] and above 75% in assay [3] (setting [5]). The same compound gave a pEC50 in assay [3] above 8.00.

As to `CCCN(CCC)CCc1cccc2c1CC(=O)N2` [ropinirole, reference compound], the Emax in assay [1] (setting [6]) and in assay [3] (setting [7]) was at least 90% each time.

With `O=C1CCc2ccc(OCCCCN3CCc4cccc(C(F)(F)F)c4C3)nc2N1` [Compound 79, 7-(4-(8-(trifluoromethyl)-3,4-dihydroisoquinolin-2(1H)-yl)butoxy)-3,4-dihydro-1,8-naphthyridin-2(1H)-one], the pIC50 in assay [1] was below 5.00; in assay [2], 6.00 to 7.00. Also, the Emax in assay [1] (setting [4]) was below 10%; in assay [2], above 75%; in assay [3] (setting [5]) it was below 10%. The compound further had a pEC50 in assay [3] below 5.00.

Turning to `O=C1CCc2ccc(OCCCCN3CCc4nccnc4C3)cc2N1` [Compound 25, 7-(4-(7,8-dihydropyrido[3,4-b]pyrazin-6(5H)-yl)butoxy)-3,4-dihydroquinolin-2(1H)-one], the pIC50 in assay [1] and in assay [2] was 5.00 to 6.00 each time. Further, the values for the Emax in assay [1] (setting [4]), in assay [2] and in assay [3] (setting [5]) were 50 to 75%, 25 to 50% and 25 to 50%, respectively. In assay [3], this compound showed a pEC50 of 6.00 to 7.00.

On to `O=C1NCCc2ccc(OCCCCN3CCc4ccccc4C3)nc2N1` [Compound 83, 8-(4-(3,4-dihydroisoquinolin-2(1H)-yl)butoxy)-4,5-dihydro-1H-pyrido[2,3-d][1,3]diazepin-2(3H)-one], for which the pIC50 in assay [1] is below 5.00; in assay [2], 7.00 to 8.00. Further, the Emax was below 10% in assay [1] (setting [4]), above 75% in assay [2] and below 10% in assay [3] (setting [5]). In assay [3], this compound showed a pEC50 below 5.00.

`CCCN[C@H]1CCc2nc(N)sc2C1` [pramipexole, reference compound]: the Emax in assay [1] (setting [6]) and in assay [3] (setting [7]) was at least 90% each time.

For orientation: pIC50 means the negative decadic logarithm of the IC50, by convention in mol/L. The low end stands for a large IC50, the high end for a small IC50. A word on the pEC50: it is the negative decadic logarithm of the EC50, by convention in mol/L. Read a high pEC50 as a small EC50.
